Measurements taken from patent US10495796B2, “Near-infrared cut filter” (AGC INC., priority 2012, dated 2019).

Legend:
[1] = Solubility of dye to organic solvent; type: physicochemical; settings: 50° C., mass % of the dye to the mass of the entire solution; for Solubility to organic solvent: MIBK: methyl isobutyl ketone
Method: Regarding the dyes (A11-1) to (A11-10) and (A11-20) to (A11-27) obtained above, solubility to organic solvent was evaluated as follows.
Three kinds of solvents, cyclohexanone, methyl isobutyl ketone (MIBK), toluene, were used as the organic solvent in the solubility test. Note that in Table 3, % is mass % of the dye to the mass of the entire solution. Further, the temperature of each organic solvent in the solubility test was 50° C.

[2] = Absorption characteristics: transmission spectrum of near-infrared absorbing layer of NIR filter (UV-visible spectrophotometer); type: physicochemical
Method: Further, the transmittance of the near-infrared absorbing layer can be measured by using an ultraviolet visible light spectrophotometer. For example, when the near-infrared absorbing layer is provided on a glass substrate, the transmittance is calculated by subtracting the transmittance of only the glass substrate. Note that the transmittance of light of the near-infrared absorbing layer refers to, unless otherwise stated, a ratio to light incident from a direction orthogonal to a main surface of a sample, the ratio of this light traveling straight inside the sample and transmitted to an opposite side. Further, when the transmittance is measured by making light incident from a direction other than the direction orthogonal to the main surface of the sample in the measurement of transmittance of light, an angle made by a straight line indicating the direction of the incident light to a line orthogonal to the main surface is called an incident angle.
In the condition (ii-3), the value calculated by nd(B)×(λa−λc) (hereinafter, this value may also be described as “Is value”) is a value to be an index indicating steepness of the absorption curve in the vicinity of the boundary between the visible light region and the near-infrared region with respect to a transmission spectrum of the near-infrared absorbing layer. When this value is 115 or less, the absorption curve in the vicinity of the boundary between the visible light region and the near-infrared region is steep with respect to the near-infrared absorbing layer, which can be said as preferable for the NIR filter.
That is, with respect to the transmission spectrum of the near-infrared absorbing layer, the smaller the difference (λa−λc) between the shortest wavelength λa with transmittance of 1% in the region of 650 nm to 800 nm and the wavelength λc with transmittance of 70% on a shorter wavelength side than the λa, the steeper the absorption curve in the vicinity of the boundary between the visible light region and the near-infrared region. Here, λa−λc also depends on a wavelength width having transmittance of 1% or less (λb−λa; λb is the longest wavelength with transmittance of 1% in the wavelength region of 650 nm to 800 nm). Accordingly, in order to compare and evaluate the steepness of the absorption curve in the above region of the transmission spectrum of the near-infrared absorbing layer, λb−λa is fixed to 30 nm. That is, λb−λa of the near-infrared absorbing layer which the present filter has is not limited to 30 nm.
Further, in the Is value, (λa−λc) is multiplied by the refractive index nd(B) of the transparent resin (B) contained in the near-infrared absorbing layer as a coefficient. This is to standardize the difference in steepness among resins.
Regarding transmittance (%/nm) of the NIR filters 1 to 109 obtained above, transmission spectra were measured and calculated by using an ultraviolet visible light spectrophotometer (U-4100 type spectrophotometer made by Hitachi High-Technologies Corporation). Analysis results of transmission spectra of the near-infrared absorbing layers which the NIR filters have are presented in Table 4, Table 5 and Table 6 for the NIR filters 1 to 25, 26 to 51, 52 to 75, respectively, and are presented in Table 7 and Table 8 for the NIR filters 76 to 94, 95 to 109, respectively. In Table 4 to Table 8, the ratios (parts by mass) of dyes to 100 parts by mass of the transparent resin (B) and film thicknesses of the near-infrared absorbing layers are described together.
Further, conditions of preferred transmission spectra of the near-infrared absorbing layers in the present filter and Is values obtained by the formula: nd(B)×(λa-λc) described in above (ii-3) are described in Table 4 to Table 8 together with λa in the condition (ii-1) and λb-λa in the condition (ii-2). Note that values described in Table 4 to Table 8 are values obtained by subtracting transmittance of a glass plate from transmittance of an NIR filter. […]

[3] = transparent resin acrylic resin BR50, nd(B) 1.56, film thickness 2.3 μm
[4] = transparent resin polycarbonate EP5000, nd(B) 1.63, film thickness 2.4 μm
[5] = transparent resin polycarbonate SP3810, nd(B) 1.63, film thickness 1.0 μm
[6] = transparent resin polycarbonate SP3810, nd(B) 1.63, film thickness 2.8 μm
[7] = transparent resin polycarbonate SP1516, nd(B) 1.60, film thickness 0.9 μm

CCCCC(CC)C(=O)Nc1cc2c(cc1C1=C([O-])C(=c3cc4c(cc3NC(=O)C(CC)CCCC)=[N+](C)C(C)C4(C)C)C1=O)C(C)(C)C(C)N2C (centres unmarked) [Example A11-2]
Solubility to organic solvent: Cyclohexanone [1]: 10%< mass %
Solubility to organic solvent: MIBK [1]: 10%< mass %
Solubility to organic solvent: Toluene [1]: 5.00% mass %
430 nm to 600 nm Average transmittance [2, 3]: 95%
Is value (nd(B)×(λa-λc)) [2, 3]: 112.4
λa [2, 3]: 689 nm
λa − λc [2, 3]: 72 nm
λb [2, 3]: 719 nm
λb − λa [2, 3]: 30 nm
λc [2, 3]: 617 nm
λmax [2, 3]: 706 nm
430 nm to 600 nm Average transmittance [2, 4]: 96.2%
Is value (nd(B)×(λa-λc)) [2, 4]: 112.6
λa [2, 4]: 694 nm
λa − λc [2, 4]: 69 nm
λb [2, 4]: 724 nm
λb − λa [2, 4]: 30 nm
λc [2, 4]: 625 nm
λmax [2, 4]: 711 nm
430 nm to 600 nm Average transmittance [2, 5]: 96.1%
Is value (nd(B)×(λa-λc)) [2, 5]: 114.4
λa [2, 5]: 694 nm
λa − λc [2, 5]: 70 nm
λb [2, 5]: 724 nm
λb − λa [2, 5]: 30 nm
λc [2, 5]: 624 nm
λmax [2, 5]: 706 nm
430 nm to 600 nm Average transmittance [2, 6]: 95.5%
Is value (nd(B)×(λa-λc)) [2, 6]: 112.8
λa [2, 6]: 694 nm
λa − λc [2, 6]: 69 nm
λb [2, 6]: 724 nm
λb − λa [2, 6]: 30 nm
λc [2, 6]: 625 nm
λmax [2, 6]: 710 nm

CCCCCCCC(=O)Nc1cc2c(cc1C1=C([O-])C(=c3cc4c(cc3NC(=O)CCCCCCC)=[N+](C)C(C)C4(C)C)C1=O)C(C)(C)C(C)N2C (centres unmarked) [Example A11-24, reference compound]
Solubility to organic solvent: Cyclohexanone [1]: 5.00% mass %
Solubility to organic solvent: MIBK [1]: 1.00% mass %
Solubility to organic solvent: Toluene [1]: 5.00% mass %
430 nm to 600 nm Average transmittance [2, 3]: 93.7%
Is value (nd(B)×(λa-λc)) [2, 3]: 132.7
λa [2, 3]: 688 nm
λa − λc [2, 3]: 85 nm
λb [2, 3]: 718 nm
λb − λa [2, 3]: 30 nm
λc [2, 3]: 603 nm
λmax [2, 3]: 705 nm
430 nm to 600 nm Average transmittance [2, 4]: 95.9%
Is value (nd(B)×(λa-λc)) [2, 4]: 120.8
λa [2, 4]: 694 nm
λa − λc [2, 4]: 69 nm
λb [2, 4]: 724 nm
λb − λa [2, 4]: 30 nm
λc [2, 4]: 620 nm
λmax [2, 4]: 710 nm
430 nm to 600 nm Average transmittance [2, 5]: 95.2%
Is value (nd(B)×(λa-λc)) [2, 5]: 122.6
λa [2, 5]: 693 nm
λa − λc [2, 5]: 75 nm
λb [2, 5]: 723 nm
λb − λa [2, 5]: 30 nm
λc [2, 5]: 618 nm
λmax [2, 5]: 710 nm
430 nm to 600 nm Average transmittance [2, 6]: 95.4%
Is value (nd(B)×(λa-λc)) [2, 6]: 119.3
λa [2, 6]: 694 nm
λa − λc [2, 6]: 73 nm
λb [2, 6]: 724 nm
λb − λa [2, 6]: 30 nm
λc [2, 6]: 621 nm
λmax [2, 6]: 710 nm

CCCCCCCCCCCC(=O)Nc1cc2c(cc1C1=C([O-])C(=c3cc4c(cc3NC(=O)CCCCCCCCCCC)=[N+](C)C(C)C4(C)C)C1=O)C(C)(C)C(C)N2C (centres unmarked) [Example A11-25, reference compound]
Solubility to organic solvent: Cyclohexanone [1]: 3.00% mass %
Solubility to organic solvent: MIBK [1]: 1.00% mass %
Solubility to organic solvent: Toluene [1]: 10%< mass %
430 nm to 600 nm Average transmittance [2, 3]: 94.5%
Is value (nd(B)×(λa-λc)) [2, 3]: 129.6
λa [2, 3]: 688 nm
λa − λc [2, 3]: 83 nm
λb [2, 3]: 718 nm
λb − λa [2, 3]: 30 nm
λc [2, 3]: 605 nm
λmax [2, 3]: 705 nm
430 nm to 600 nm Average transmittance [2, 4]: 95.5%
Is value (nd(B)×(λa-λc)) [2, 4]: 120.8
λa [2, 4]: 693 nm
λa − λc [2, 4]: 69 nm
λb [2, 4]: 723 nm
λb − λa [2, 4]: 30 nm
λc [2, 4]: 619 nm
λmax [2, 4]: 710 nm
430 nm to 600 nm Average transmittance [2, 7]: 95.6%
Is value (nd(B)×(λa-λc)) [2, 7]: 124.8
λa [2, 7]: 690 nm
λa − λc [2, 7]: 78 nm
λb [2, 7]: 720 nm
λb − λa [2, 7]: 30 nm
λc [2, 7]: 612 nm
λmax [2, 7]: 707 nm
430 nm to 600 nm Average transmittance [2, 5]: 94.6%
Is value (nd(B)×(λa-λc)) [2, 5]: 122.6
λa [2, 5]: 693 nm
λa − λc [2, 5]: 75 nm
λb [2, 5]: 723 nm
λb − λa [2, 5]: 30 nm
λc [2, 5]: 618 nm
λmax [2, 5]: 710 nm
430 nm to 600 nm Average transmittance [2, 6]: 95.3%
Is value (nd(B)×(λa-λc)) [2, 6]: 119.3
λa [2, 6]: 694 nm
λa − λc [2, 6]: 73 nm
λb [2, 6]: 724 nm
λb − λa [2, 6]: 30 nm
λc [2, 6]: 621 nm
λmax [2, 6]: 710 nm
